Consider eleven compounds from ChEMBL document CHEMBL1150529, “Synthesis and pharmacological activity of SC-53228, a leukotriene B4 receptor antagonist with high intrinsic potency and selectivity” (Bioorg Med Chem Lett, 1994).

Calls of active or inactive are those of the source. The calls are words filed in the database; no cut-off is given here.

For one experiment, the species on record is Homo sapiens. Kind of experiment: Compound was tested for inhibitory activity against leukotriene B4 induced neutrophil chemotaxis. Format: functional.
In experiment [1] the target is Leukotriene B4 receptor 1 (Homo sapiens, UniProt Q15722). Kind of experiment: Inhibitory activity against leukotriene B4 receptor.
The species entered for experiment [2] is Mus musculus. Kind of experiment: Oral effective dose for TPA induced ear inflammation in the mouse. Format: functional.
For experiment [3], the system named is Mus musculus. Kind of experiment: Topical effective dose for TPA induced ear inflammation in the mouse. Format: functional.
The species entered for the next experiment is Cavia porcellus. Kind of experiment: Oral effective dose for guinea pig LTB4 induced intradermal chemotaxis. Format: functional.
Another experiment concerns Rattus norvegicus. Kind of experiment: Tested for increase in fatty acyl Co-A activity in rats dosed for 7 days at a dose of 200 mg/kg/day; NS means no significant activity. The format is functional, organism-based.

Chain of Leukotriene B4 receptor 1 (Q15722 whole entry): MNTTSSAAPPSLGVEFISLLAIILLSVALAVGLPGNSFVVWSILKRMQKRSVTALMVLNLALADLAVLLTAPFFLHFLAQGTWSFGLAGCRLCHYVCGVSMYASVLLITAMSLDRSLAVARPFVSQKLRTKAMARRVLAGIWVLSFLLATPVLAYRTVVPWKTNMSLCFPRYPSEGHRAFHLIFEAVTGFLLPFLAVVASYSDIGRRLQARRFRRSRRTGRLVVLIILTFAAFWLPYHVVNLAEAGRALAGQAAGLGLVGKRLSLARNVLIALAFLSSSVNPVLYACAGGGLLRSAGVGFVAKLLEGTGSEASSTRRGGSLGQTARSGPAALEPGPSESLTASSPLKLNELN

One may read the IC50 as the midpoint of a concentration-inhibition curve. A higher IC50 goes with a need for much substance. In the case of `CCCCC/C=C\C[C@@H](O)/C=C/C=C/C=C\[C@@H](O)CCCC(=O)O` [LEUKOTRIENE_B4], in the experiment listed under Homo sapiens, the IC50 amounted to 1.79 nM.
Regarding `CCCc1c(OCCCOc2ccc(C(=O)N(C)C)c(OC)c2CCC)ccc2c1OC(C(=O)O)CC2` (centres undefined), the figures for the IC50 (in the experiment listed under Homo sapiens; in experiment [1]) were less than 0.14 nM and 0.15 nM, respectively.
The like results for `CCCc1c(OCCCOc2ccc(C(=O)NC)c(OC)c2CC2CC2)ccc2c1OC(C(=O)O)CC2` (centres undefined) were, in that order, 13 nM and 5.3 nM.
Regarding `CCCc1c(OCCCOc2ccc(C(=O)NC(C)C)c(OC)c2CCC)ccc2c1OC(C(=O)O)CC2` (centres undefined), the IC50 in the experiment filed under Homo sapiens was 0.11 nM; in experiment [1] it was 0.1 nM.
On to `CCCc1c(OCCCOc2ccc(C(=O)NC)c(OC)c2CC2CC2)ccc2c1OC(CCC(=O)O)CC2` (centres undefined), for which the 50% inhibitory concentration (IC50) in the experiment listed under Homo sapiens was determined as 21.9 nM; in experiment [1], 10.9 nM.
The matching figures for `CCCc1c(OCCCOc2ccc(C(=O)NC)c(OC)c2CCC)ccc2c1OC(C(=O)O)CC2` (centres undefined): 1.3 nM and 0.85 nM.
For the compound `CCCc1c(OCCCOc2ccc(C(C)=O)c(OC)c2CCC)ccc2c1OC(C(=O)O)CC2` (centres undefined) [SC-41390], the ED50 in the experiment filed under Mus musculus [2] stood at 18 mg/kg; in the experiment on Mus musculus [3] it was 1400 µg; in the experiment listed under Cavia porcellus, 1.7 mg/kg. In the experiment filed under Homo sapiens, this compound returned an IC50 of 1 nM.
Regarding `CCCc1c(OCCCOc2ccc(C(=O)NC)c(OC)c2CC2CC2)ccc2c1O[C@H](CCC(=O)O)CC2`, the result in the experiment on Rattus norvegicus was inactive. Further, the ED50 in the experiment filed under Mus musculus [2] is less than 2.5 mg/kg; in the experiment on Mus musculus [3], 200 µg; in the experiment listed under Cavia porcellus, 0.07 mg/kg. The IC50 was found to be 24.4 nM in the experiment listed under Homo sapiens and 14.5 nM in experiment [1].
In the case of `CCCc1c(OCCCOc2ccc(C(=O)N3CCCC3)c(OC)c2CCC)ccc2c1OC(C(=O)O)CC2` (centres undefined), the results for the IC50 (in the experiment listed under Homo sapiens; in experiment [1]) were less than 0.16 nM and less than 0.1 nM, respectively.
Take `CCCc1c(OCCCOc2ccc(C(=O)NC)c(OC)c2CC2CC2)ccc2c1O[C@@H](CCC(=O)O)CC2`: the IC50 in the experiment filed under Homo sapiens was determined as 10.7 nM; in experiment [1], 8.5 nM. In addition, the ED50 was found to be 1200 µg in the experiment on Mus musculus [3] and 0.2 mg/kg in the experiment filed under Cavia porcellus.
Consider `CCCc1c(OCCCOc2ccc(C(N)=O)c(OC)c2CCC)ccc2c1OC(C(=O)O)CC2` (centres undefined), for which the half-inhibitory concentration (IC50) in the experiment filed under Homo sapiens stood at 2.7 nM; in experiment [1], 2.4 nM.
